The compounds below were run against BRD4 (BDI_K57-E168) (Homo sapiens, UniProt O60885) (assay: TR-FRET bromodomain binding assay, BRD4 first bromodomain (BDI)). Details: mean Ki; 12 nM His tagged BRD4 (BDI_K57-E168), 100 nM Alexa647 probe; Ki calculated from IC50, probe Kd and probe concentration.
Description: A time-resolved fluorescence resonance energy transfer (TR-FRET) assay was used to determine the affinities of compounds of the Examples listed in Table 1 for each bromodomain of BRD4. […] An Alexa647-labeled BET-inhibitor was used as the fluorescent probe in the assay.
Compound dilution series were prepared in DMSO via an approximately 3-fold serial dilution. Compound dilutions were added directly into white, low-volume assay plates (Perkin Elmer Proxiplate 384 Plus# 6008280) using a Labcyte Echo in conjunction with Labcyte Access and Thermo Multidrop CombinL robotics. Compounds were then suspended in eight microliters (μL) of assay buffer (20 mM Sodium Phosphate, pH 6.0, 50 mM NaCl, 1 mM Ethylenediaminetetraacetic acid disodium salt dihydrate, 0.01% Triton X-100, 1 mM DL-Dithiothreitol) containing His-tagged bromodomain, Europium-conjugated anti-His antibody (Invitrogen PV5596) and Alexa-647-conjugated probe.
After a one-hour equilibration at room temperature, TR-FRET ratios were determined using an Envision multilabel plate reader (Ex 340, Em 495/520).
TR-FRET data were normalized to the means of 24 no-compound controls (“high”) and 8 controls containing 1 μM un-labeled probe (“low”). Percent inhibition was plotted as a function of compound concentration and the data were fit with the 4 parameter logistic equation to obtain IC50s. Inhibition constants (Ki) were calculated from the IC50s, probe Kd and probe concentration.
Work on `CN1C(=O)[C@@]2(C[C@H]2c2cn(C)c(=O)c3[nH]c(-c4cnn(C)c4)cc23)c2ccccc21` (racemic) [Example 33, rac-(1R,2S)-1′-methyl-2-[6-methyl-2-(1-methyl-1H-pyrazol-4-yl)-7-oxo-6,7-dihydro-1H-pyrrolo[2,3-c]pyridin-4-yl]spiro[cyclopropane-1,3′-indol]-2′(1H)-one] yielded a Ki of 531 nM.
`Cc1nn(C)cc1-c1cc2c([C@@H]3C[C@@]34C(=O)N(C)c3ccccc34)cn(C)c(=O)c2[nH]1` (racemic) [Example 36, rac-(1R,2S)-2-[2-(1,3-dimethyl-1H-pyrazol-4-yl)-6-methyl-7-oxo-6,7-dihydro-1H-pyrrolo[2,3-c]pyridin-4-yl]-1′-methylspiro[cyclopropane-1,3′-indol]-2′(1H)-one] gave a Ki greater than 13000 nM.
`CN1C(=O)[C@@]2(C[C@H]2c2cn(C)c(=O)c3[nH]c(-c4cc[nH]n4)cc23)c2ccccc21` (racemic) [Example 37, rac-(1R,2S)-1′-methyl-2-[6-methyl-7-oxo-2-(1H-pyrazol-3-yl)-6,7-dihydro-1H-pyrrolo[2,3-c]pyridin-4-yl]spiro[cyclopropane-1,3′-indol]-2′(1H)-one] showed a Ki of 1250 nM.
`CN1C(=O)[C@@]2(C[C@@H]2c2cn(C)c(=O)c3[nH]c(-c4cc[nH]n4)cc23)c2ccccc21` (racemic) [Example 38, rac-(1R,2R)-1′-methyl-2-[6-methyl-7-oxo-2-(1H-pyrazol-3-yl)-6,7-dihydro-1H-pyrrolo[2,3-c]pyridin-4-yl]spiro[cyclopropane-1,3′-indol]-2′(1H)-one] showed a Ki greater than 13000 nM.
For `Cc1cc(-c2cc3c([C@@H]4C[C@@]45C(=O)N(C)c4ccccc45)cn(C)c(=O)c3[nH]2)on1` (racemic) [Example 39, rac-(1R,2S)-1′-methyl-2-[6-methyl-2-(3-methyl-1,2-oxazol-5-yl)-7-oxo-6,7-dihydro-1H-pyrrolo[2,3-c]pyridin-4-yl]spiro[cyclopropane-1,3′-indol]-2′(1H)-one], the Ki was 885 nM.
`Cc1cc(-c2cc3c([C@H]4C[C@@]45C(=O)N(C)c4ccccc45)cn(C)c(=O)c3[nH]2)on1` (racemic) [Example 40, rac-(1R,2R)-1′-methyl-2-[6-methyl-2-(3-methyl-1,2-oxazol-5-yl)-7-oxo-6,7-dihydro-1H-pyrrolo[2,3-c]pyridin-4-yl]spiro[cyclopropane-1,3′-indol]-2′(1H)-one] gave a Ki greater than 13000 nM.
For `CN1C(=O)[C@@]2(C[C@H]2c2cn(C)c(=O)c3[nH]c(-c4nccn4C)cc23)c2ccccc21` (racemic) [Example 41, rac-(1R,2S)-1′-methyl-2-[6-methyl-2-(1-methyl-1H-imidazol-2-yl)-7-oxo-6,7-dihydro-1H-pyrrolo[2,3-c]pyridin-4-yl]spiro[cyclopropane-1,3′-indol]-2′(1H)-one], the Ki was 1490 nM.
Compound `CN1C(=O)[C@@]2(C[C@H]2c2cn(C)c(=O)c3[nH]c(-c4ncco4)cc23)c2ccccc21` (racemic) [Example 42, rac-(1R,2S)-1′-methyl-2-[6-methyl-2-(1,3-oxazol-2-yl)-7-oxo-6,7-dihydro-1H-pyrrolo[2,3-c]pyridin-4-yl]spiro[cyclopropane-1,3′-indol]-2′(1H)-one] has a Ki of 2820 nM.
`CN1C(=O)[C@@]2(C[C@H]2c2cn(C)c(=O)c3[nH]c(-c4cn(C)cn4)cc23)c2ccccc21` (racemic) [Example 43, rac-(1R,2S)-1′-methyl-2-[6-methyl-2-(1-methyl-1H-imidazol-4-yl)-7-oxo-6,7-dihydro-1H-pyrrolo[2,3-c]pyridin-4-yl]spiro[cyclopropane-1,3′-indol]-2′(1H)-one] gave a Ki of 1840 nM.
With `CN1C(=O)[C@@]2(C[C@H]2c2cn(C)c(=O)c3[nH]c(-c4cncn4C)cc23)c2ccccc21` (racemic) [Example 44, rac-(1R,2S)-1′-methyl-2-[6-methyl-2-(1-methyl-1H-imidazol-5-yl)-7-oxo-6,7-dihydro-1H-pyrrolo[2,3-c]pyridin-4-yl]spiro[cyclopropane-1,3′-indol]-2′(1H)-one] the Ki was 1300 nM.
Compound `CN1C(=O)[C@@]2(C[C@H]2c2cn(C)c(=O)c3[nH]c(-c4ccccn4)cc23)c2ccccc21` (racemic) [Example 45, rac-(1R,2S)-1′-methyl-2-[6-methyl-7-oxo-2-(pyridin-2-yl)-6,7-dihydro-1H-pyrrolo[2,3-c]pyridin-4-yl]spiro[cyclopropane-1,3′-indol]-2′(1H)-one] has a Ki greater than 13000 nM.
For `Cc1ccnc(-c2cc3c([C@@H]4C[C@@]45C(=O)N(C)c4ccccc45)cn(C)c(=O)c3[nH]2)c1` (racemic) [Example 46, rac-(1R,2S)-1′-methyl-2-[6-methyl-2-(4-methylpyridin-2-yl)-7-oxo-6,7-dihydro-1H-pyrrolo[2,3-c]pyridin-4-yl]spiro[cyclopropane-1,3′-indol]-2′(1H)-one], the Ki was greater than 13000 nM.
In the case of `CN1C(=O)[C@@]2(C[C@H]2c2cn(C)c(=O)c3[nH]c(-c4cccnc4)cc23)c2ccccc21` (racemic) [Example 47, rac-(1R,2S)-1′-methyl-2-[6-methyl-7-oxo-2-(pyridin-3-yl)-6,7-dihydro-1H-pyrrolo[2,3-c]pyridin-4-yl]spiro[cyclopropane-1,3′-indol]-2′(1H)-one], the Ki is reported as 2620 nM.
`CN1C(=O)[C@@]2(C[C@H]2c2cn(C)c(=O)c3[nH]c(-c4ccncc4)cc23)c2ccccc21` (racemic) [Example 50, rac-(1R,2S)-1′-methyl-2-[6-methyl-7-oxo-2-(pyridin-4-yl)-6,7-dihydro-1H-pyrrolo[2,3-c]pyridin-4-yl]spiro[cyclopropane-1,3′-indol]-2′(1H)-one] gave a Ki of 1280 nM.
For `CN1C(=O)[C@@]2(C[C@H]2c2cn(C)c(=O)c3[nH]c(-c4ccnc(C(F)(F)F)c4)cc23)c2ccccc21` (racemic) [Example 51, rac-(1R,2S)-1′-methyl-2-{6-methyl-7-oxo-2-[2-(trifluoromethyl)pyridin-4-yl]-6,7-dihydro-1H-pyrrolo[2,3-c]pyridin-4-yl}spiro[cyclopropane-1,3′-indol]-2′(1H)-one], the Ki was 4680 nM.
For `CN1C(=O)[C@@]2(C[C@H]2c2cn(C)c(=O)c3[nH]c(-c4cncnc4)cc23)c2ccccc21` (racemic) [Example 54, rac-(1R,2S)-1′-methyl-2-[6-methyl-7-oxo-2-(pyrimidin-5-yl)-6,7-dihydro-1H-pyrrolo[2,3-c]pyridin-4-yl]spiro[cyclopropane-1,3′-indol]-2′(1H)-one], the Ki was 1080 nM.
With `CN1C(=O)[C@@]2(C[C@H]2c2cn(C)c(=O)c3[nH]c(-c4ccncn4)cc23)c2ccccc21` (racemic) [Example 55, rac-(1R,2S)-1′-methyl-2-[6-methyl-7-oxo-2-(pyrimidin-4-yl)-6,7-dihydro-1H-pyrrolo[2,3-c]pyridin-4-yl]spiro[cyclopropane-1,3′-indol]-2′(1H)-one] the Ki was 3420 nM.
For `CN1C(=O)[C@@]2(C[C@H]2c2cn(C)c(=O)c3[nH]c(-c4ccnnc4)cc23)c2ccccc21` (racemic) [Example 56, rac-(1R,2S)-1′-methyl-2-[6-methyl-7-oxo-2-(pyridazin-4-yl)-6,7-dihydro-1H-pyrrolo[2,3-c]pyridin-4-yl]spiro[cyclopropane-1,3′-indol]-2′(1H)-one], the Ki was 2760 nM.
With `CN1C(=O)[C@@]2(C[C@@]2(C)c2cn(C)c(=O)c3[nH]c(C(=O)NC4CC4)cc23)c2ccc(OC(F)(F)F)cc21` (racemic) [Example 58, rac-N-cyclopropyl-4-[(1R,2S)-1′,2-dimethyl-2′-oxo-6′-(trifluoromethoxy)-1′,2′-dihydrospiro[cyclopropane-1,3′-indol]-2-yl]-6-methyl-7-oxo-6,7-dihydro-1H-pyrrolo[2,3-c]pyridine-2-carboxamide] the Ki was greater than 13000 nM.
Work on `CN1C(=O)[C@]2(C[C@@H]2c2cn(C)c(=O)c3[nH]c(C(=O)O)cc23)c2ccccc21` (single isomer, unassigned) [Example 6] yielded a Ki greater than 13000 nM.
`CN1C(=O)[C@@]2(C[C@H]2c2cn(C)c(=O)c3[nH]c(C(=O)O)cc23)c2ccccc21` (single isomer, unassigned) [Example 7] was tested, and the Ki was greater than 13000 nM.
`CN1C(=O)[C@@]2(C[C@H]2c2cn(C)c(=O)c3[nH]c(C(=O)NC4CC4)cc23)c2cc(F)ccc21` (single isomer, unassigned) [Example 18] was tested, and the Ki was greater than 13000 nM.
Work on `Cn1cc([C@H]2C[C@]23C(=O)Nc2ccccc23)c2cc(C(=O)NC3CC3)[nH]c2c1=O` (single isomer, unassigned) [Example 20] yielded a Ki of 7340 nM.
In the case of `Cn1cc([C@@H]2C[C@@]23C(=O)Nc2ccccc23)c2cc(C(=O)NC3CC3)[nH]c2c1=O` (single isomer, unassigned) [Example 21], the Ki is reported as greater than 13000 nM.
For `CN1C(=O)[C@@]2(C[C@H]2c2cn(C)c(=O)c3[nH]c(C(=O)NC4CC4)cc23)c2ccccc21` [Example 4, N-cyclopropyl-6-methyl-4-[(1R,2S)-1′-methyl-2′-oxo-1′,2′-dihydrospiro[cyclopropane-1,3′-indol]-2-yl]-7-oxo-6,7-dihydro-1H-pyrrolo[2,3-c]pyridine-2-carboxamide], the Ki was greater than 13000 nM.
`CN1C(=O)[C@]2(C[C@@H]2c2cn(C)c(=O)c3[nH]c(C(=O)NC4CC4)cc23)c2cc(F)ccc21` [Example 17, N-cyclopropyl-4-[(1S,2R)-5′-fluoro-′-methyl-2′-oxo-1′,2′-dihydrospiro[cyclopropane-1,3′-indol]-2-yl]-6-methyl-7-oxo-6,7-dihydro-1H-pyrrolo[2,3-c]pyridine-2-carboxamide] showed a Ki of 5040 nM.

From patent US20210130346A1, “Bromodomain Inhibitors” (AbbVie Inc., priority 2017, published 2021)
